ChEMBL document CHEMBL1201862, “PubChem BioAssay data set” (2004)
The source made the active and inactive calls. Cut-off read from the data, not from the text of the source, for most assays here: actives have a measured EC50 and inactives only a lower limit.

Assays:
[1] = inhibitors of firefly luciferase expression or activity, dose response, H4 neuroglioma cells, luminescence (AID 1990); assay type: functional, cell-based
[2] = inhibitors of SNCA 5'UTR-driven reporter translation, confirmation, H4 neuroglioma cells, luminescence (AID 1988); assay type: functional, cell-based
[3] = Luminescence Cell-Based Dose Response HTS to Identify Inhibitors of 5'UTR Stem-Loop Driven Prion Protein mRNA Translation in H4 Neuroglioblastoma Cells. [Related pubchem assays: 1827 (Project Summary), 1813 (Primary HTS)]; assay type: functional
[4] = cells; assay type: functional, cell-based
[5] = cells; assay type: functional, cell-based; remark: listed apart in the source
[6] = molecular target: T1, Heat shock factor protein 1 (Mus musculus, UniProt P38532); assay: HSF1 potentiators in luciferase reporter cells, confirmation, cell-based, NIH3T3, luminescence, dose retest (AID 435004); assay type: functional;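 note: stress induced by proteasome inhibitor MG132 added 30 min after compound; luciferase reporter driven by HSF1 response element in NIH3T3 cells; actives raise luminescence as potentiators of the MG132 stress response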
T1 sequence (P38532 whole entry): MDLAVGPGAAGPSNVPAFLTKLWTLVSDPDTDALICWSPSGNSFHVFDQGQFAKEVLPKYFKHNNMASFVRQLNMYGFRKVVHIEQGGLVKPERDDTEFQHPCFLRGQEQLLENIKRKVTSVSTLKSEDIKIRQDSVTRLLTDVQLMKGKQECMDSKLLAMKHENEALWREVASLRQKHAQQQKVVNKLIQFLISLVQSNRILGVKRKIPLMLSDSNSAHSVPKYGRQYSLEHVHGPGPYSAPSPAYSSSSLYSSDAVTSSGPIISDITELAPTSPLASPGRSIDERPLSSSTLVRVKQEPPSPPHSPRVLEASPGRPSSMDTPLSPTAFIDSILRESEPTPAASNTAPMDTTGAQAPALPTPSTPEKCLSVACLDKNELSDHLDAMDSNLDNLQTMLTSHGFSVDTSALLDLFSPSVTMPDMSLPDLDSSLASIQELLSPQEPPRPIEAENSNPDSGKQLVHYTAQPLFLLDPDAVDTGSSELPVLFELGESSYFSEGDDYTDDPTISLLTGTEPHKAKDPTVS

[7] = tested on: BJ; assay: cells; assay type: functional, cell-based; conditions: Homo sapiens
[8] = tested on: BJ; assay: cytotoxicity toward BJ-TERT-LT-ST fibroblasts, dose response, cell-based, RAS-independent, luminescence (AID 1935); assay type: functional; conditions: Homo sapiens;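 note: BJ fibroblasts immortalized with TERT plus LT and ST oncogenes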
[9] = tested on: BJ; assay: cytotoxicity toward BJ-TERT fibroblasts, dose response, cell-based, RAS-independent, luminescence (AID 1933); assay type: functional; conditions: Homo sapiens
[10] = cytotoxicity toward DRD oncogenic fibroblasts, dose response, cell-based, non-viral oncogenic, luminescence (AID 1934); assay type: functional; conditions: Homo sapiens
[11] = molecular target: T2, Corticotropin-releasing factor receptor 2/Corticotropin-releasing factor-binding protein (Homo sapiens, UniProt P24387+Q13324); assay: activators of CRF receptor 2 with binding protein – uHTS hits, confirmation (AID 602473); assay type: functional; conditions: read-out: EC50_Mean
T2 sequence (Q13324 whole entry): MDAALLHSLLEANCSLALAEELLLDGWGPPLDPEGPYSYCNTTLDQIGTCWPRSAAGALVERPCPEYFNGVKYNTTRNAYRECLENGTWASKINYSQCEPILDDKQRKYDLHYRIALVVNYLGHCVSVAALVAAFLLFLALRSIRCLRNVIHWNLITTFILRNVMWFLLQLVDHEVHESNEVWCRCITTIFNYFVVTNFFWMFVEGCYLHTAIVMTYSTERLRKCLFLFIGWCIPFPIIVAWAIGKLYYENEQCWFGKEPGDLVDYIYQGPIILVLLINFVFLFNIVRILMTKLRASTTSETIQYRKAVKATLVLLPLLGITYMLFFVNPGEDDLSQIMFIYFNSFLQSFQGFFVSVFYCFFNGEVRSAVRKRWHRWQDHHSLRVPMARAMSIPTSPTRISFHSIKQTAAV
T2 sequence (P24387 whole entry): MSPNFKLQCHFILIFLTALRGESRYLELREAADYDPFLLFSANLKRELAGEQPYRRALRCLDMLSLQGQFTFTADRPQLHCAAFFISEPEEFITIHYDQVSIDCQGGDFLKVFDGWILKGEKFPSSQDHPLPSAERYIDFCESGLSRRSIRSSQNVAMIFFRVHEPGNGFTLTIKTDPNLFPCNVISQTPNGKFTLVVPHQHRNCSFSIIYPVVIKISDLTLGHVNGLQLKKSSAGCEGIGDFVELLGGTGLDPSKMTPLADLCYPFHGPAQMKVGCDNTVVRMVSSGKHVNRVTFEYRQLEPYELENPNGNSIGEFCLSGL

[12] = molecular target: T2, Corticotropin-releasing factor receptor 2/Corticotropin-releasing factor-binding protein; assay: Dose Response confirmation of uHTS hits for small molecule antagonists of the CRF-binding protein and CRF-R2 receptor complex.; assay type: functional; conditions: read-out: IC50_Mean
[13] = Luminescence Cell-Based Dose Confirmation HTS to Identify Inhibitors of Platelet Dense Granule Release. [Related pubchem assays: 1663 (Primary HTS), 1678 (Summary of Project)]; assay type: functional
[14] = molecular target: Luciferin 4-monooxygenase (Photinus pyralis, UniProt P08659); assay: firefly luciferase enzyme inhibitors, dose response, biochemical, luminescence (AID 1891)
Chain of Luciferin 4-monooxygenase (P08659 whole entry): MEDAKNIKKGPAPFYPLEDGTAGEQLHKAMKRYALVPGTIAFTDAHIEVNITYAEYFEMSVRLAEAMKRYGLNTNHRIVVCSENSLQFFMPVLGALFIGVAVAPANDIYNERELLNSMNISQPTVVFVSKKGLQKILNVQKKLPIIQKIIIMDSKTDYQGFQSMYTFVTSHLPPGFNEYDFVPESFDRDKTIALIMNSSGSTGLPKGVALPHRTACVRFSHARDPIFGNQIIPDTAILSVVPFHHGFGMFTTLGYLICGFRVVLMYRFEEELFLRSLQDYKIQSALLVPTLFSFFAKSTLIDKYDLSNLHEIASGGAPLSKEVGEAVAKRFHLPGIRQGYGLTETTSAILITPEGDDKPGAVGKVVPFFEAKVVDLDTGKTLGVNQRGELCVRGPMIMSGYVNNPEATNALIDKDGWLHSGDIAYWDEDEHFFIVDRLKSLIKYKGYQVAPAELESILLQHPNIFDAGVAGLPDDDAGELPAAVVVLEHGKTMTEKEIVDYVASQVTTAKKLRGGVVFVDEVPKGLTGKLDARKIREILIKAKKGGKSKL

[15] = molecular target: Cytochrome P450 2C9 (Homo sapiens, UniProt P11712)
Chain of Cytochrome P450 2C9 (P11712 whole entry): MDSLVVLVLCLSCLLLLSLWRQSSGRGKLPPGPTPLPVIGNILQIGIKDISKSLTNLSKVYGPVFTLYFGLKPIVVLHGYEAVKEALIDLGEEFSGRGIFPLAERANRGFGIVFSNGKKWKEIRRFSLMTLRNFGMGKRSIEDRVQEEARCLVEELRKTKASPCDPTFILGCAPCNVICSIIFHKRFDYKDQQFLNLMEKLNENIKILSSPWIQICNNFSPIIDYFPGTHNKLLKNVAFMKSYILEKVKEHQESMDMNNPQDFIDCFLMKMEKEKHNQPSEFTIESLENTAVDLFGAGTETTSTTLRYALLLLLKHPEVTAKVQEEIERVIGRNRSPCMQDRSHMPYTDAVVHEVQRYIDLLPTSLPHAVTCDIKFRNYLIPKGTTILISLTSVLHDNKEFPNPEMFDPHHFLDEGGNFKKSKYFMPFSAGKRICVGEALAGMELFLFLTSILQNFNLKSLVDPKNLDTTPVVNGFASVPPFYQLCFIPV

[16] = C. albicans growth with fluconazole, confirmation, fluorescence, retest (AID 2467); assay type: functional, cell-based
[17] = NIH-3T3 fibroblast cytotoxicity, dose response, cytotoxicity control, cell-based, fluorescence, Alamar Blue, secondary assay (AID 2327); assay type: functional;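 note: NIH-3T3 mouse fibroblasts cultured with fluconazole at 8 µg/mL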

Compound	EC50 [2]	EC50 [3]	EC50 [11]	IC50 [12]	other results
Cc1nnc(N2CCC(C(=O)NC3CCC(C)CC3)CC2)c2nn(-c3ccc(Cl)cc3)c(C)c12 (stereo not given)	> 120 µM (not active)	> 120 µM (not active)	–	–	EC50 [1]: 14.7 µM (active)
Cn1nnc(NC(=O)c2cccc([N+](=O)[O-])c2)n1	–	–	–	–	EC50 [4]: > 350 µM (not active); EC50 [5]: > 350 µM (not active)
Cc1ccc(S(=O)(=O)Nc2cc(-c3nn(C)c(=O)c4ccccc34)ccc2N2CCOCC2)cc1	10.8 µM (active)	> 120 µM (not active)	–	–	EC50 [1]: > 60 µM (not active)
CCCC1(C(=O)OC)NC(c2ccco2)C2C(=O)N(C)C(=O)C21 (stereo not given)	> 120 µM (not active)	> 120 µM (not active)	–	–	EC50 [1]: > 120 µM (not active)
Cc1ccc(-n2nc3c(c2NC(=O)c2ccc4c(c2)OCO4)CSC3)c(C)c1	–	–	–	–	EC50 [6]: > 260 µM (inactive)
CCOC(=O)C(CC)(CC)C(=O)/C=C/c1cccc(Br)c1	–	–	–	–	EC50 [7]: 16.6 µM (active); EC50 [8]: 10.7 µM (inconclusive); EC50 [9]: 10 µM (active); EC50 [10]: 9.57 µM (active)
CCOC(=O)c1c(C)[nH]c(C)c1S(=O)(=O)N1CCN(c2ccc([N+](=O)[O-])cc2)CC1	> 120 µM (not active)	> 120 µM (not active)	–	–	EC50 [1]: 23 µM (active)
CCCCc1ccc(-c2ccc(C)cc2O)nc1	4.33 µM (active)	11.7 µM (inconclusive)	–	–	–
Cc1ccc(N(C(=O)Cn2nnc(-c3ccccc3)n2)C(C(=O)NC2CCCCC2)c2ccccn2)cc1C (stereo not given)	–	–	> 53 µM (inactive)	> 47.1 µM (inactive)	–
CCOc1ccc(N(CC(=O)NC2CCC(C)CC2)S(=O)(=O)c2c(C)noc2C)cc1 (stereo not given)	–	–	> 53 µM (inactive)	> 47.1 µM (inactive)	–
CC(C)COc1ccc(C(=O)Nc2ccc([N+](=O)[O-])cc2)cc1	–	–	–	–	EC50 [4]: > 350 µM (not active); EC50 [5]: > 350 µM (not active)
O=[N+]([O-])c1ccc(N2CCN(S(=O)(=O)c3ccccc3)CC2)cc1NCC1CCCO1 (stereo not given)	19.2 µM (active)	40.6 µM (active)	–	–	EC50 [1]: 18.3 µM (active)
CCc1nc2scc(-c3cccs3)c2c(=O)o1	–	–	–	–	EC50 [13]: > 112 µM (not active); EC50 [14]: > 112 µM (not active)
COc1ccc(N2CCN(C(=O)c3csc4ccccc34)CC2)cc1	–	–	> 53 µM (inactive)	> 47.1 µM (inactive)	–
C=CCNC(=S)N/N=C/c1ccc(OCc2ccccc2)cc1	–	–	> 53 µM (inactive)	> 47.1 µM (inactive)	AC50 [15]: 15.8 µM (inconclusive)
C/C(=N\NC(=O)c1ccc2c(c1)OCCO2)c1ccccc1	–	–	–	–	EC50 [13]: 2.98 µM (active); EC50 [14]: 12.8 µM (active)
Cc1ccc2c(c1)Oc1ccccc1N=C2	–	–	> 53 µM (inactive)	> 47.1 µM (inactive)	–
CCOc1ccc(/C=N/NC(=O)CN2CCCCCCC2)cc1	–	–	> 53 µM (inactive)	> 47.1 µM (inactive)	–
O=C(Nc1ccccc1O)c1ccccc1O	–	–	–	–	EC50 [16]: 6.43 µM (active); EC50 [17]: > 150 µM (inactive)
